{"source": "patent US20220380430A1", "about": "“Non-Transgenic Functional Rescue of Neuropeptides” (Worcester Polytechnic Institute, priority 2021, published 2022)", "system": "him-5 and pdf-1 males", "test": "Excursion (food-leaving) assay after rescue-by-feeding", "type": "in vivo, C. elegans", "settings": "Probability of Leaving per hour, beyond 35 mm from food", "source_text": "We quantified the behavioral activity of pdf-1 lof males using a food-leaving behavior as previously described. Individuals were placed on a small food spot, and track patterns were scored at three different time points (2, 6, 24 hrs) (FIG. 4A). “Never left food” indicate the absence of tracks outside the food spot. […] “Major excursion” indicates the presence of tracks past the 1 cm boundary (FIG. 1B, Excursion Assay). The food-leaving behavior was quantified as a measure of mate-searching behavior. In this behavior well-fed males left food in search of mates and the data is represented as a Probability of Leaving (PL) (FIG. 7A).\nThe mate searching behavior of pdf-1 mutants was quantified in a food leaving assay. him-5 animals were used as wild-type control to ensure the presence of males. him-5 and pdf-1 animals were fed OP50, scramble peptide, PDF-1A, PDF-1B, or a 1:1 mixture of PDF-1A and PDF-1B cultures. Four to six larval L4 hermaphrodites were passed onto an NGM plate containing […] AMP and 1 mM IPTG with 75 μL of peptide. These worms were grown at 20° C. for about 4 days until the male progeny of the initial L4 worms were young adults. The day prior to the assay, young adult male pdf-1 or him-5 worms were singled onto 60 mm plates containing lawns of either OP50 (NGM plates) or appropriate peptide cultures (NGM containing […] AMP and 1 mM IPTG). To determine the mate searching effects of pdf-1, we performed a food-leaving assay as described previously in Barrios, A., et al., Nat Neurosci 15, 1675-1682 (2012); Lipton, J., et al., The Journal of neuroscience: the official journal of the Society for Neuroscience 24, 7427-7434 (2004); Ryan, D. A. et al. Curr Biol 24, 2509-2517 (2014), with modifications. In this assay, individuals were placed on a small food spot, and track patterns were scored at the indicated times. Assay plates were prepared one day prior to assaying on 100 mm plates with 10 mL of Leaving Assay media (25 mM KPO4 (pH 6.0), 1 mM MgSO4, 1 mM CaCl2), 50 mM NaCl, 2.5 g/L Peptone, 17 g/L Agar). On center of plate, 7 μL of OP50 was added. Plates were lightly covered and stored at room temperature overnight (˜20° C., <40% humidity).\nOn the day of the assay, a single male was plated on the assay plate and placed in a dark, 20° C. incubator. At 2, 6, and 24 hours after the worms are plated, plates were scored for male worm tracks. Scored were separated into binned ranges. “Never left food” indicates the absence of tracks outside the food spot. […] “Major excursion” indicates the presence of tracks past the 1 cm boundary. The food leaving behavior was quantified at three different time points (2, 6, and 24 hours). (FIG. 4A, FIG. 7A, Table IV).\nThe mate searching defect of pdf-1 was quantified as a Probability of Leaving per hour (PL) (FIG. 4B, FIG. 7B).\nThe assay was performed across at least two days per condition, with at least n=50, wherein each assay plate with one male is equal to n=1. In all experiments, the investigators were blinded to genotype. Worm in the >35 mm from the center of food bin were scored as “leavers”. The probability of leaving per hour (Probability of Leaving (PL)) was calculated using an R script developed in Barrios et al., with assistance by (Personal Communications to Barrios, 2020). PL was calculated by the “hazard obtained by fitting an exponential parametric survival model to the censored data using maximum likelihood” (Table IV). The PLh-1 values for all pdf-1 animals fed scramble or peptide rescue were compared to him-5 worms fed scramble using an ANOVA followed by Bonferroni's multiple comparison (FIG. 4B, FIG. 7C).", "note": "No end group written: not given here.", "data": [{"substance": "NSKLHRGGGRSRTSGSTGSMASHARGSPGLQ-NH2 [SCRAMBLE, scramble control peptide expressed in E. coli DH5α, negative control, reference compound]", "values": [{"measurement": "PL (confidence interval)", "setting": "him-5 males", "value": "0.07727 (0.06532, 0.09141)"}, {"measurement": "PL (confidence interval)", "setting": "pdf-1 males", "value": "0.03538 (0.02747, 0.04556)"}]}]}
